Test results: patent US20230348369A1 (Cytokinetics, Inc., priority 2020, published 2023)
pEC50: −log10 of the molar value. Where two headings read alike, the source gives them in different places.

Target: human NAMPT (Homo sapiens, UniProt P43490)
Assay: Human recombinant enzyme assay (NMN fluorescence biochemical assay, activation of NAMPT)
Summary of the method: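 NMN production is detected fluorometrically (Ex 355/Em 460 nm) 40 min after acetophenone, KOH and formic acid derivatization. Reactions ran 60 min at ambient temperature: 6 nM human NAMPT, nicotinamide 150 μM, PRPP 20 μM, ATP 2.5 mM, buffered at pH 7.2 with 50 mM HEPES plus DTT, CHAPS, NaCl and 100 mM MgCl2.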

[1] = Table A, human recombinant NAMPT, NMN formation, 60 min
[2] = Table A, human recombinant NAMPT, NMN formation, 60 min, read-out: EC50 Human

Sequence of human NAMPT (P43490 whole entry): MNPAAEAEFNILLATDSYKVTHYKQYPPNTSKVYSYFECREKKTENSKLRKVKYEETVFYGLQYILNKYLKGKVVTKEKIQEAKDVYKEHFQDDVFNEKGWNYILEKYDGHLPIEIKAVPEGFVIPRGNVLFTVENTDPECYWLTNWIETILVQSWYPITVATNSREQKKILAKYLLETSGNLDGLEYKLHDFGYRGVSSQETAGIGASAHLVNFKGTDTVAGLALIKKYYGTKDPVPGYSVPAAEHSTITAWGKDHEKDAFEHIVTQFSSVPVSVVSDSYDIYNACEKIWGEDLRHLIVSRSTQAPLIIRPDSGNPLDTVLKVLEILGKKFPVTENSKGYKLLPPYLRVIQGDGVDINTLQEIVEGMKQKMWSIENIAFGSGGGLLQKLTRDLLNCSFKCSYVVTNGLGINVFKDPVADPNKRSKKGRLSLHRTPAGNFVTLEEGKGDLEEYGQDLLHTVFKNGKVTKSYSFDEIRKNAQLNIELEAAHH

| AC1.4 Human [1] [µM] | pEC50 [2] | Compound | pEC50 |
| --- | --- | --- | --- |
| 2.9 | 5.28 | O=C(NCc1ccc(Cl)cc1)NC1CC2(C1)CN(C(=O)c1cccc(-n3cccc3)c1)C2 [Compound 219, 1-(2-(3-(1H-pyrrol-1-yl)benzoyl)-2-azaspiro[3.3]heptan-6-yl)-3-(4-chlorobenzyl)urea] | – |
| 2.2 | 5.89 | O=C(NCc1ccc(Cl)cc1)NC1CC2(CC(Cc3cnccn3)C2)C1 (stereo not drawn) [Compound 331, 1-(4-chlorobenzyl)-3-(6-(pyrazin-2-ylmethyl)spiro[3.3]heptan-2-yl)urea] | – |
| 11.3 | 4.40 | COc1ccc(CNC(=O)NC2CC3(C2)CC(C(=O)N2CCCC2c2ccncc2)C3)cc1 (stereo not drawn) [Compound 58, 1-(4-methoxybenzyl)-3-(6-(2-(pyridin-4-yl)pyrrolidine-1-carbonyl)spiro[3.3]heptan-2-yl)urea] | – |
| 3.2 | 4.40 | CC(C)(C)OC(=O)N1CCC2(CC1)CC2CNC(=O)NCc1cn[nH]c1 (stereo not drawn) [Compound 31, tert-butyl 1-((3-((1H-pyrazol-4-yl)methyl)ureido)methyl)-6-azaspiro[2.5]octane-6-carboxylate] | – |
| 10.2 | 4.83 | O=C(Cc1ccccc1)NC1CC2(C1)CC(NC(=O)NCc1ccc(Cl)cc1)C2 (stereo not drawn) [Compound 115, N-(6-(3-(4-chlorobenzyl)ureido)spiro[3.3]heptan-2-yl)-2-phenylacetamide] | – |
| 0.1 | 5.85 | Cc1ccccc1C(=O)N1CCC(CCCCNC(=O)NCc2cnco2)CC1 [Compound 320, 1-(4-(1-(2-methylbenzoyl)piperidin-4-yl)butyl)-3-(oxazol-5-ylmethyl)urea] | – |
| 2.4 | 4.34 | COc1ccc(CNC(=O)NC2CC3(C2)CC(C(=O)NCC(C)(C)c2ccncc2)C3)cc1 (stereo not drawn) [Compound 80, 6-(3-(4-methoxybenzyl)ureido)-N-(2-methyl-2-(pyridin-4-yl)propyl)spiro[3.3]heptane-2-carboxamide] | – |
| 1.9 | 5.14 | O=C(NCCCCC1CCN(c2ccccn2)CC1)NCc1ccc(Cl)cc1 [Compound 307, 1-(4-chlorobenzyl)-3-(4-(1-(pyridin-2-yl)piperidin-4-yl)butyl)urea] | – |
| 8.0 | 4.48 | COc1ccc(CNC(=O)NC2CC3(C2)CC(C(=O)N2CCCc4ccc(F)c(F)c42)C3)cc1 (stereo not drawn) [Compound 102] | – |
| 4.2 | 4.36 | COc1ccc(CNC(=O)NC2CC3(CC(CN4CCCC4c4ccccc4)C3)C2)cc1 (stereo not drawn) [Compound 52, 1-(4-methoxybenzyl)-3-(6-((2-phenylpyrrolidin-1-yl)methyl)spiro[3.3]heptan-2-yl)urea] | – |
| 0.2 | 5.70 | CN(C(=O)CCCCCNC(=O)NCc1ccncc1)c1ccccc1F [Compound 286, N-(2-fluorophenyl)-N-methyl-6-(3-(pyridin-4-ylmethyl)ureido)hexanamide] | – |
| 2.0 | 5.10 | Cc1cccc(CN(C)C(=O)CCCCCNC(=O)NCc2ccc(Cl)cc2)c1 [Compound 267, 6-(3-(4-chlorobenzyl)ureido)-N-methyl-N-(3-methylbenzyl)hexanamide] | – |
| 0.9 | 6.00 | COC(=O)N1CCN(C(=O)C2CC3(CC(NC(=O)NCc4ccc(Cl)cc4)C3)C2)CC1 (stereo not drawn) [Compound 233, Methyl 4-(6-(3-(4-chlorobenzyl)ureido)spiro[3.3]heptane-2-carbonyl)piperazine-1-carboxylate] | – |
| 2.0 | 4.29 | Cc1ccc(C(=O)N2CC3(CC(NC(=O)NCc4ccc(C(N)=O)cc4)C3)C2)cn1 [Compound 225, 4-((3-(2-(6-methylnicotinoyl)-2-azaspiro[3.3]heptan-6-yl)ureido)methyl)benzamide] | – |

| Compound | AC1.4 Human [1] [µM] | pEC50 [2] | pEC50 |
| --- | --- | --- | --- |
| CC(C)(C(=O)N1CC2(CC(NC(=O)NCc3ccc(Cl)cc3)C2)C1)c1ccccc1 [Compound 221, 1-(4-chlorobenzyl)-3-(2-(2-methyl-2-phenylpropanoyl)-2-azaspiro[3.3]heptan-6-yl)urea] | 1.1 | – | 5.34 |
